In US9688662B2, “N-(2,3-dihydro-1H-pyrrolo[2,3-b]pyridin-5-yl)-4-quinazolinamine and N-(2,3-dihydro-1H-indol-5-yl)-4-quinazolinamine derivatives as perk inhibitors” (Janssen Pharmaceutica NV, priority 2013, dated 2017):

Legend:
[1] = biological target: T1, PERK (Homo sapiens, UniProt Q9NZJ5); experiment: In-vitro PERK enzyme inhibition assay (LanthaScreen, KIN_PERK); format: biochemical; parameters: GST (N); purchased Invitrogen PV5106; conditions: recombinant GST-PERK, GFP-eIF2 alpha substrate, 5 μM ATP, 60 minutes; for IC50: read-out: KIN_PERK pIC50 (converted)
T1 sequence (Q9NZJ5 30-1116): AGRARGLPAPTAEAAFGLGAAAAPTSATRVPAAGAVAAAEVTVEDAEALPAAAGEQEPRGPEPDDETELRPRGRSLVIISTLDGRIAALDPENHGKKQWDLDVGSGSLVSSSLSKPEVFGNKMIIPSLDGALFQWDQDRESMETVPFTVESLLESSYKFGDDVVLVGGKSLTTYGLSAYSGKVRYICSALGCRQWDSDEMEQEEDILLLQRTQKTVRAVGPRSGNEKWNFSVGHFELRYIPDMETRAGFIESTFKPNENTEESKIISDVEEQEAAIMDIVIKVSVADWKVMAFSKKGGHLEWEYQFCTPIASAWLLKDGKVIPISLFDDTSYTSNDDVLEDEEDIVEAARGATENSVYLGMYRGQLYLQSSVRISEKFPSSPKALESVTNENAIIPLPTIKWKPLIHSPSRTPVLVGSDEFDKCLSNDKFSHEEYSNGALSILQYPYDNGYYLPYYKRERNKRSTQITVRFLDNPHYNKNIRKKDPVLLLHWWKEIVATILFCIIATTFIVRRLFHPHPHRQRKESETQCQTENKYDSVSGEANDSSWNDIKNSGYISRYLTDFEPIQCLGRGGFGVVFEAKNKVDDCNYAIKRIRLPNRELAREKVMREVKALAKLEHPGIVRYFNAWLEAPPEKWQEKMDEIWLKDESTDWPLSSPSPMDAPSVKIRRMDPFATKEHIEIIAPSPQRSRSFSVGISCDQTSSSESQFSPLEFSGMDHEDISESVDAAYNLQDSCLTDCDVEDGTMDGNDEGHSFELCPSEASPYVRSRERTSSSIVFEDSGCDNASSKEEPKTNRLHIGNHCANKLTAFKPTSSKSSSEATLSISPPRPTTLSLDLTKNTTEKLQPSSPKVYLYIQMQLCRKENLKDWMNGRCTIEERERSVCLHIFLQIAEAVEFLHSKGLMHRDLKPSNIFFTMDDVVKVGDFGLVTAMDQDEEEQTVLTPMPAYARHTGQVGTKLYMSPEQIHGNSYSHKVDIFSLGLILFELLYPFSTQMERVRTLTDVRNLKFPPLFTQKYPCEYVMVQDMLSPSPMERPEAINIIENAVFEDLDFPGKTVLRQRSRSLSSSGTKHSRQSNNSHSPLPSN
Experimental: Pharmacology i) In-Vitro PERK Enzyme Inhibition Assay (KIN_PERK pIC50)
The compounds of the invention were tested for inhibitory activity against PERK in an enzyme inhibition assay.
A biochemical PERK kinase assay using LanthaScreen® technology from Invitrogen using recombinant GST-PERK (Invitrogen PV5106), GFP-eIF2 alpha (full length) as substrate (Invitrogen PV4809) and the Terbium-labeled antibody (Tb-anti-peIF2alpha (pSer52); Invitrogen PV4816) as detection reagent, was performed essentially as described by the manufacturer, using following specific parameters: […]

[2] = biological target: T1, PERK; experiment: Cell-based PERK inhibition assay (TR-FRET, phosphorylation of GFP-eIF2 alpha in HEK293 cells, tunicamycin)
Experimental: A cell-based TR-FRET assay to measure inhibition of phosphorylation of GFP-eIF2 alpha expressed in HEK293 cells by compounds was set up as follows:
LanthaScreen® eIF2α GripTite cells (Invitrogen M4387) were plated and incubated for 16-20 h at 37° C. and 5% CO2, incubated with test compounds for 60 min, and then stimulated with tunicamycin (2 microg/ml) for 120 min. Culture medium was aspirated from the wells and, the cells were lysed in LanthaScreen® Cellular Assay Lysis Buffer (Invitrogen; PV5598), supplemented with protease inhibitor cocktail (Sigma P8340, 1/1000 dilution) and phosphatase inhibitor cocktail (Sigma P0044, 1/1000 dilution), including 2 nM terbium-labeled eIF2a pSer52 antibody (Invitrogen; PV4816).

[3] = HEK293 (LanthaScreen eIF2α GripTite) cells, compounds 60 min, tunicamycin 2 microg/ml 120 min, read-out: P-eIF2alpha_Lantha_cell pIC50 (converted)
[4] = HEK293 (LanthaScreen eIF2α GripTite) cells, compounds 60 min, tunicamycin 2 microg/ml 120 min

| SMILES | IC50 [1] | IC50 [2, 3] | other results |
| --- | --- | --- | --- |
| COc1cc2ncnc(Nc3ccc4c(c3)CCN4C(=O)Cc3c(-c4ccccc4)[nH]c4ccccc34)c2cc1OC [Compound 33] | 6310 nM |  |  |
| COc1cc2ncnc(Nc3ccc4c(c3)CCN4C(=O)Cc3csc4ccccc34)c2cc1OC [Compound 16] | 5.01 nM | 501 nM | melting point: 161 °C |
| COc1cc2ncnc(Nc3ccc4c(c3)CCN4C(=O)Cn3c(=O)n(C)c4ccccc43)c2cc1OC [Compound 29] | 50.1 nM | > 30200 nM |  |
| COc1cc2ncnc(Nc3cnc4c(c3)CCN4C(=O)Cc3cc(F)cc(C(F)(F)F)c3)c2cc1OC [Compound 38] | 3160 nM |  |  |
| COc1cc2ncnc(Nc3ccc4c(c3)CCN4C(=O)Cc3cc4ccccc4[nH]3)c2cc1OC [Compound 32] | 398 nM | > 30200 nM |  |
| COc1cc2ncnc(Nc3ccc4c(c3)CCN4C(=O)Cc3c(-c4ccoc4)cnn3C)c2cc1OC [Compound 49] | 50.1 nM | 3160 nM |  |
| COc1cc2ncnc(Nc3ccc4c(c3)CCN4C(=O)Cc3coc4ccccc34)c2cc1OC [Compound 30] |  | > 30200 nM | KIN_PERK pIC50 [1]: 8.0; melting point: 165 °C |
| COc1cc2ncnc(Nc3ccc4c(c3)CCN4C(=O)Cc3c[nH]c4ccccc34)c2cc1OC [Compound 40] | 12.6 nM | 631 nM | melting point: 180 °C |
| COc1cc2ncnc(Nc3ccc4c(c3)CCN4C(=O)Cc3cn(C)c4ccccc34)c2cc1OC [Compound 12] | 5.01 nM | 200 nM |  |
| COc1ccc2c(Nc3ccc4c(c3)CCN4C(=O)Cc3cc(F)cc(C(F)(F)F)c3)ncnc2c1 [Compound 45] | 39.8 nM | > 30200 nM |  |
| COc1cc2ncnc(Nc3ccc4c(c3)CCN4C(=O)Cn3c(C)cc4ccc(F)cc43)c2cc1OC [Compound 7] |  |  | KIN_PERK pIC50 [1]: 8.5; P-eIF2alpha_Lantha_cell pIC50 [2, 4]: 7.1 |
| COc1cc2ncnc(Nc3ccc4c(c3)CCN4C(=O)Cc3n[nH]c4ccc(F)cc34)c2cc1OC [Compound 23] | 31.6 nM | 2000 nM |  |
| COc1cc2ncnc(Nc3ccc4c(c3)CCN4C(=O)Cc3c(-c4cccs4)cnn3C)c2cc1OC [Compound 46, 1-[5-[(6,7-dimethoxyquinazolin-4-yl)amino]indolin-1-yl]-2-[2-methyl-4-(2-thienyl)pyrazol-3-yl]ethanone] | 398 nM | ~11500 nM |  |
| COc1cc2ncnc(Nc3ccc4c(c3)CCN4C(=O)Cc3ccnn3C)c2cc1OC [Compound 47, 1-[5-[(6,7-dimethoxyquinazolin-4-yl)amino]indolin-1-yl]-2-(2-methylpyrazol-3-yl)ethanone] | 63.1 nM | 6310 nM |  |
| COc1cc2ncnc(Nc3ccc4c(c3)CCN4C(=O)CN3C(=O)c4ccccc4C3=O)c2cc1OC [Compound 36] | 3160 nM |  | melting point: 190 °C |
| COc1cc2ncnc(Nc3ccc4c(c3)CCN4C(=O)Cc3c[nH]c4ncccc34)c2cc1OC [Compound 27] | 63.1 nM | 3980 nM |  |
| COc1cc2ncnc(Nc3ccc4c(c3)CCN4C(=O)Cc3c(C)nc4ccccn34)c2cc1OC [Compound 19] | 12.6 nM | 1260 nM |  |
| COc1cc2ncnc(Nc3ccc4c(c3)CCN4C(=O)Cn3ncc4ccccc43)c2cc1OC [Compound 24] | 79.4 nM | 3160 nM |  |
| COc1cc2ncnc(Nc3ccc4c(c3)CCN4C(=O)Cc3c(C)[nH]c4c(F)cccc34)c2cc1OC [Compound 4] |  |  | KIN_PERK pIC50 [1]: 8.8; P-eIF2alpha_Lantha_cell pIC50 [2, 4]: 7.4 |
| COc1cc2ncnc(Nc3ccc4c(c3)CCN4C(=O)Cc3c(-c4cnoc4)cnn3C)c2cc1OC [Compound 50] | 79.4 nM | 3160 nM |  |
| COc1cc2ncnc(Nc3ccc4c(c3)CCN4C(=O)Cn3cnc4ccccc43)c2cc1OC [Compound 31] | 63.1 nM | > 30200 nM |  |

| SMILES | IC50 [1] | IC50 [2, 3] | other results |
| --- | --- | --- | --- |
| COc1cc2ncnc(Nc3ccc4c(c3)CCN4C(=O)Cc3cc(F)cc(C(F)(F)F)c3)c2cc1OC [Compound 43] | 2 nM | 1580 nM |  |
| COc1cc2ncnc(Nc3ccc4c(c3)CCN4C(=O)Cn3nc(C)c4ccccc43)c2cc1OC [Compound 9] | 15.8 nM | 251 nM |  |
| COc1ccc2[nH]c(C)c(CC(=O)N3CCc4cc(Nc5ncnc6cc(OC)c(OC)cc56)ccc43)c2c1 [Compound 6] | 1.58 nM | 79.4 nM |  |
| COc1cc2ncnc(Nc3ccc4c(c3)CCN4C(=O)Cc3cn(C(C)C)c4ccccc34)c2cc1OC [Compound 37] | 1580 nM |  |  |
| COc1cc2ncnc(Nc3ccc4c(c3)CCN4C(=O)Cc3c(-c4cnn(C)c4)cnn3C)c2cc1OC [Compound 52] | 631 nM | > 30200 nM |  |
| COCCOc1cc2ncnc(Nc3ccc4c(c3)CCN4C(=O)Cc3c(C)[nH]c4ccccc34)c2cc1OCCOC [Compound 14] |  | 398 nM | melting point: 186 °C |
| COc1cc2ncnc(Nc3ccc4c(c3)CCN4C(=O)Cc3n[nH]c4ccccc34)c2cc1OC [Compound 26] | 63.1 nM | 3160 nM |  |
| COc1cc2ncnc(Nc3ccc4c(c3)CCN4C(=O)COc3ccccc3C(C)=O)c2cc1OC [Compound 25] | 79.4 nM | 3160 nM |  |
| COc1cc2ncnc(Nc3ccc4c(c3)CCN4C(=O)Cc3c(-c4ccccc4)cnn3C)c2cc1OC [Compound 48] | 251 nM | 1260 nM |  |
| COc1cc2ncnc(Nc3ccc4c(c3)C(F)(F)CN4C(=O)Cc3cc(F)ccc3F)c2cc1OC [Compound 18] | 31.6 nM | 794 nM |  |
| COc1cc2ncnc(Nc3ccc4c(c3)CCN4C(=O)Cc3ccsc3)c2cc1OC [Compound 22] | 63.1 nM | 2000 nM |  |
| COc1cc2ncnc(Nc3ccc4c(c3)CCN4C(=O)Cc3c(-c4ccsc4)cnn3C)c2cc1OC [Compound 51] | 251 nM | 31600 nM |  |
| COc1cc2ncnc(Nc3ccc4c(c3)CCN4C(=O)Cc3c(C)[nH]c4ccc(F)cc34)c2cc1OC [Compound 2] | 0.631 nM |  | IC50 [2]: 25.1 nM |
| COc1cc2ncnc(Nc3ccc4c(c3)CCN4C(=O)Cn3ccc4ccc(F)cc43)c2cc1OC [Compound 13] | 3.98 nM | 200 nM |  |
| COc1ccc2ncnc(Nc3ccc4c(c3)CCN4C(=O)Cc3cc(F)cc(C(F)(F)F)c3)c2c1 [Compound 44] | ~21.4 nM | > 30200 nM |  |
| Cc1[nH]c2ccccc2c1CC(=O)N1CCc2cc(Nc3ncnc4cc5c(cc34)OCO5)ccc21 [Compound 10] | 3.98 nM | 158 nM |  |
| COc1cc2ncnc(Nc3ccc4c(c3)CCN4C(=O)CN3Cc4ccccc4C3=O)c2cc1OC [Compound 34] | 1580 nM |  |  |
| O=C(Cc1cc(F)ccc1F)N1CCc2cc(Nc3ncnc4cc5c(cc34)OCO5)ccc21 [Compound 35] | > 10000 nM |  |  |
| COc1cc2ncnc(Nc3ccc4c(c3)CCN4C(=O)Cc3c(C)[nH]c4ccccc34)c2cc1OCCCN1CCOCC1 [Compound 8] |  | 158 nM | melting point: 216 °C |
| COc1cc2ncnc(Nc3ccc4c(c3)CCN4C(=O)Cc3cccc(C)n3)c2cc1OC [Compound 41] |  | 794 nM | melting point: 248 °C |
| COc1cc2ncnc(Nc3ccc4c(c3)CCN4C(=O)Cc3ccccc3)c2cc1OC [Compound 21] | 25.1 nM | 1260 nM |  |
